Measurements as given in patent publication EP4049726A1, “IMIDAZO[1,2-A]PYRAZINES AS INHIBITORS OF HASPIN AND THERAPEUTIC USES THEREOF” (Fundación del Sector Público Estatal Centro Nacional de …, priority 2021, dated 2022).
pEC50, pIC50: −log10 of the molar value.

Experiments:
[1] = molecular target: T1, HASPIN (Homo sapiens, UniProt Q8TF76); experiment: Cellular HASPIN inhibition assay (phosphorylation of H3T3, western blot); type: cell-based; settings: MV4:11 cells, 8 hours of treatment, read-out: pH3T3 EC50
T1 sequence (Q8TF76 1-798): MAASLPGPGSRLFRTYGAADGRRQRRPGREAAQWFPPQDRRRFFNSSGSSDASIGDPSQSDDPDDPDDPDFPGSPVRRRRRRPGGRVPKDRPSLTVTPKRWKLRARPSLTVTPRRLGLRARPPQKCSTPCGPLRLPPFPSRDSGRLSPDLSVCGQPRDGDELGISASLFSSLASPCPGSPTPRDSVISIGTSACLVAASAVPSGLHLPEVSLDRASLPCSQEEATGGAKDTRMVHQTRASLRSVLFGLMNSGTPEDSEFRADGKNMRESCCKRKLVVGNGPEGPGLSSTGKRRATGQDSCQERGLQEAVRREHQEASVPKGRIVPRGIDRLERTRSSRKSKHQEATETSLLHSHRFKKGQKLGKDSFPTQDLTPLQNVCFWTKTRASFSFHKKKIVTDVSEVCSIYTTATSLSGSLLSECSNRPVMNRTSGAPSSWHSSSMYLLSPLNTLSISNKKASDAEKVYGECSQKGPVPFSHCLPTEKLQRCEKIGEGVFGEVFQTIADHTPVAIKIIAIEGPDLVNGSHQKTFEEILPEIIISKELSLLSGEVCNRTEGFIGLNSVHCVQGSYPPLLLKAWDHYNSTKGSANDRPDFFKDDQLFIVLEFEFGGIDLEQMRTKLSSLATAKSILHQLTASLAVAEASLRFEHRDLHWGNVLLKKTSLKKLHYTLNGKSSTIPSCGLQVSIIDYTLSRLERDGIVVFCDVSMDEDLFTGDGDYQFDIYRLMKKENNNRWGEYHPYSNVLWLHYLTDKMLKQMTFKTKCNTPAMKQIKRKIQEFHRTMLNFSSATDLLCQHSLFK
Experimental: Cellular HASPIN Inhibition Assay (phosphorylation of H3T3): Compounds can be screened for their ability to inhibit intracellular HASPIN using a western blot assay to detect phosphorylation of the HASPIN substrate H3T3 in synchronized cells. MV4:11 cells are plated at 400000 cells per well in 6-well plates in RPMI media supplemented with 10% foetal bovine serum, Penicillin/Streptomycin solution diluted 1: 100, and fungizone, and allowed to adhere overnight at 37 °C in 5% CO2. Then, compounds are added to the cell media from a final concentration of 10 µM in 10-fold serial dilutions and the cells are incubated at 37 °C in 5% CO2. After 8 hours of treatment with the compounds, the cells are washed in PBS, lysed adding 100 µl of protein lysis buffer (62.5 mM Tris pH 6.8 al 6.25%, 2% SDS y 10% glycerol) incubation 10 minutes at room temperature and heating at 95 °C 10 min. The protein content of the lysates is determined by DC protein assay. The proteins are resolved by SDS-PAGE and transferred to nitrocellulose membrane. The membranes are incubated overnight at 4 °C with antibodies specific for H3, phosphothreonine-3 H3 they are washed and then incubated with IRDye800 conjugated antimouse and Alexa Fluor 680 goat anti-rabbit IgG secondary antibodies. The bands are visualized and quantified using an Odyssey infrared imaging system. The percentage of H3 phosphorylation is finally plotted against concentration for each compound and EC50s for intracellular HASPIN inhibition are calculated using a software platform for screening data management.

[2] = molecular target: T1, HASPIN; experiment: HASPIN biochemical assay (ADP-Glo, HASPIN autophosphorylation); settings: ATP 150 µM, 60 min at 30 °C
Experimental: HASPIN biochemical Assay: The biochemical assay to measure HASPIN activity relies on the ADP-Glo™ assay kit (Promega) that determines the amount of ADP as direct product of the kinase enzyme activity. Assay conditions were as indicated by the kit manufacturers with the following adaptations for the kinase activity step: Kinase assay buffer and assay volume (15 mM HEPES pH 7.5, 20 mM NaCl, 1 mM EGTA, 0.02% TWEEN 20, 10 mM MgCl2, 0.1 mg/mL BGG)/25 µL assay volume). Incubation time and temperature: 60 min at 30 °C. HASPIN final concentration: 0.9 µg/mL. ATP final concentration: 150 µM. HASPIN autophosphorylation was measured. Assays were performed in 384-well plates. The final outcome of the coupled reactions provided by the kit is the release of […] and has been measured with a multilabel HTS counter Victor V / Envision. Values were normalized against the control activity included (100% HASPIN activity, without compound). Values were plotted against the inhibitor concentration and fit to a sigmoid dose-response curve using Activity base by IDBS software.

## Cc1cc(-c2cn3cc(C(N)=O)nc3c(NCC3CCNCC3)n2)ccn1 [Compound 36, 6-(2-Methyl-pyridin-4-yl)-8-[(piperidin-4-ylmethyl)-amino]-imidazo[1,2-a]pyrazine-2-carboxylic acid amide]
[1]
  pEC50: > 7.30
[2]
  pIC50: 7.61

## CNC(=O)c1cn2cc(-c3ccncc3)nc(NCC3CCNCC3)c2n1 [Compound 4, 8-[(Piperidin-4-ylmethyl)-amino]-6-pyridin-4-yl-imidazo[1,2-a]pyrazine-2-carboxylic acid methylamide]
[1]
  pEC50: > 7.30
[2]
  pIC50: 7.69

## N#CC1(CNc2nc(-c3ccncc3)cn3cc(C(N)=O)nc23)CCNCC1 [Compound 8, 8-[(4-Cyano-piperidin-4-ylmethyl)-amino]-6-pyridin-4-yl-imidazo[1,2-a]pyrazine-2-carboxylic acid amide]
[1]
  pEC50: > 7.30
[2]
  pIC50: 7.71

## NC(=O)c1cn2cc(-c3ccncc3F)nc(NCC3(F)CCNCC3)c2n1 [Compound 33, 8-[(4-Fluoro-piperidin-4-ylmethyl)-amino]-6-(3-fluoro-pyridin-4-yl)-imidazo[1,2-a]pyrazine-2-carboxylic acid amide]
[1]
  pEC50: > 7.30
[2]
  pIC50: 7.98

## CNC(=O)c1cn2cc(-c3ccncc3F)nc(NCC3(C#N)CCNCC3)c2n1 [Compound 32, 8-[(4-Cyano-piperidin-4-ylmethyl)-amino]-6-(3-fluoro-pyridin-4-yl)-imidazo[1,2-a]pyrazine-2-carboxylic acid methylamide]
[1]
  pEC50: > 7.30
[2]
  pIC50: 8.12

## NC(=O)c1cn2cc(-c3ccnc(Cl)c3)nc(NCC3CCNCC3)c2n1 [Compound 3, 6-(2-Chloro-pyridin-4-yl)-8-[(piperidin-4-ylmethyl)-amino]-imidazo[1,2-a]pyrazine-2-carboxylic acid amide]
[1]
  pEC50: > 7.30
[2]
  pIC50: 7.34

## NC(=O)c1cn2cc(-c3ccncc3F)nc(NCC3CCNCC3)c2n1 [Compound 27, 6-(3-Fluoro-pyridin-4-yl)-8-[(piperidin-4-ylmethyl)-amino]-imidazo[1,2-a]pyrazine-2-carboxylic acid amide]
[1]
  pEC50: > 7.30
[2]
  pIC50: 8.03
